{
  "source": "patent US8431698B2",
  "about": "“Bioluminescent endoscopy methods and compounds” (BioLume Inc., priority 2007, dated 2013)",
  "key": {"Renilla luciferase": {"target": "T1, Renilla luciferase (Renilla reniformis, UniProt P27652)", "T1 construct": "made in house", "T1 sequence (P27652 1-311)": "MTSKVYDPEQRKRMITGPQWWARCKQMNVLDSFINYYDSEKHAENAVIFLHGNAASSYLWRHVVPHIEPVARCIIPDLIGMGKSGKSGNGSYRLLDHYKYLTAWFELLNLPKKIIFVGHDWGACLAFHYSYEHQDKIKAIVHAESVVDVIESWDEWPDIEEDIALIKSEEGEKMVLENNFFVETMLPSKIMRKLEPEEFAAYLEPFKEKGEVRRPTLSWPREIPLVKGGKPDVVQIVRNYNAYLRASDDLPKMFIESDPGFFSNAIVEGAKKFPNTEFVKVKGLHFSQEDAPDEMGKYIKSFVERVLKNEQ", "experiment": "Visible glow of coelenterazine with crude extract of bacteria expressing Renilla luciferase in assay buffer", "type": "biochemical", "settings": "about 0.005 mg coelenterazine, about 0.25 ml crude extract, 100 ml assay buffer", "method": "In certain embodiments herein, about 1 to 10 mg, or preferably 2-5 mg, more preferably about 3 mg of coelenterazine will be used with about 100 mg of Renilla luciferase. The precise amounts, of course can be determined empirically, and, also will depend to some extent on the ultimate concentration and application."}, "[1]": {"test_system": "aequorin photoprotein luciferase or luciferase from Renilla", "experiment": "Duration of glow of luciferin in water after adding luciferase in presence of Ca++", "type": "biochemical", "settings": "5 mg luciferin in one liter of water, about 10 mgs luciferase, Ca++ present; depends on water temperature", "method": "Thus, for example, 5 mg of luciferin, such as coelenterazine, in one liter of water will glow brightly for at least about 10 to 20 minutes, depending on the temperature of the water, when about 10 mgs of luciferase, such as aequorin photoprotein luciferase or luciferase from Renilla, is added thereto in presence of Ca^++. Increasing the concentration of luciferase, for example, to 100 mg/L, provides a particularly brilliant light display."}, "[2]": {"experiment": "Rat bioluminescence imaging after coelenterazine and Renilla luciferase via bilateral jugular cannulas", "type": "in vivo", "settings": "coelenterazine 50 mM in Hank's balanced salt solution in one jugular cannula, Renilla luciferase 5 mg/ml in the opposite", "method": "(§1) A rat was equipped with bilateral jugular cannulas. To one was applied a solution of coelenterazine (50 mM) in Hank's balanced salt solution and to the opposite jugular cannula was administered Renilla luciferase, 5 mg/ml in Hank's balanced slat solution. An image was obtained and was pseudocoloured with Scion Image according to the light level obtained by a Princeton Instruments camera and is shown at FIG. 19.\nas §1, with “20.” for “19.”\nas §1, with “21.” for “19.”"}},
  "data": [
    {"compound": "Oc1ccc(Cc2nc3c(Cc4ccccc4)nc(-c4ccc(O)cc4)cn3c2O)cc1", "note": "[coelenterazine]", "values": [
      {"measurement": "glow produced", "setting": "Renilla luciferase", "value": "sufficient to produce a visible and lasting glow"},
      {"measurement": "time of bright glow", "setting": "[1]", "value": "10 to 20", "unit": "min"},
      {"measurement": "bioluminescence image, liver (FIG. 20)", "setting": "[2]", "value": "patchy contrast regions in the liver"},
      {"measurement": "bioluminescence image, whole animal (FIG. 21)", "setting": "[2]", "value": "perfusion of bioluminescence in the whole animal"}
    ]}
  ]
}
